Key:
Assay type in all cases: in vivo
[1] = test system: Scirpus juncoides; experiment: Herbicidal efficacy on paddy field weeds of pre-emergence stage (Pre), Test Example 1; details: 1000 g/ha as active ingredient, examined after 21 days
In short: (§1)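 Pre-emergence paddy test: 1000 g/ha active ingredient, formulated and water-diluted, dropped onto 5 cm floodwater one day after sowing both weeds in clay loam. After 21 days in greenhouse, inhibition relative to untreated control rated on 0 (0%) to 5 (100%) scale.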

[2] = test system: Lindernia procumbens; experiment: as above; details: 1000 g/ha as active ingredient, examined after 21 days
In short: as §1

[3] = test system: Scirpus juncoides; experiment: Herbicidal effect on paddy field weeds of post-emergence stage (Post), Test Example 2; details: one-leaf stage, 1000 g/ha as active ingredient, examined after 21 days
In short: (§2)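 Post-emergence paddy test: formulated compound added to 5 cm standing water at 1000 g/ha a.i. when weeds reached one-leaf stage in clay loam pots in greenhouse. Growth inhibition rated 21 days later versus untreated control on a 0 (0%) to 5 (100%) scale.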

[4] = test system: Lindernia procumbens; experiment: as above; details: one-leaf stage, 1000 g/ha as active ingredient, examined after 21 days
In short: as §2

[5] = test system: Echinochloa crus-galli; experiment: as above; details: one-leaf stage, 1000 g/ha as active ingredient, examined after 21 days
In short: as §2

Row | SMILES | Scirpus juncoides pre (herbicidal effect) [1] | Lindernia procumbens pre (herbicidal effect) [2] | Scirpus juncoides post (herbicidal effect) [3] | Lindernia procumbens post (herbicidal effect) [4] | Echinochloa crus-galli post (herbicidal effect) [5]
1 | COC(=O)N(c1ccccc1CN1CCC(C)COC1=O)S(=O)(=O)C(F)(F)F (racemic) [2-24] | 4 (90%-99% herbicidal effect, phytotoxicity) | 4 (90%-99% herbicidal effect, phytotoxicity) | 4 (90%-99% herbicidal effect, phytotoxicity) | 4 (90%-99% herbicidal effect, phytotoxicity) | 4 (90%-99% herbicidal effect, phytotoxicity)
2 | CCOC(=O)N(c1ccccc1CN1CCC(C)COC1=O)S(=O)(=O)C(F)(F)F (racemic) [2-25] | 4 (90%-99% herbicidal effect, phytotoxicity) | 4 (90%-99% herbicidal effect, phytotoxicity) | 4 (90%-99% herbicidal effect, phytotoxicity) | 4 (90%-99% herbicidal effect, phytotoxicity) | 4 (90%-99% herbicidal effect, phytotoxicity)
3 | CCCCOC(=O)N(c1ccccc1CN1CCC(C)COC1=O)S(=O)(=O)C(F)(F)F (racemic) [2-27] | 4 (90%-99% herbicidal effect, phytotoxicity) | 4 (90%-99% herbicidal effect, phytotoxicity) | 4 (90%-99% herbicidal effect, phytotoxicity) | 4 (90%-99% herbicidal effect, phytotoxicity) | 4 (90%-99% herbicidal effect, phytotoxicity)
4 | CC1CCN(Cc2ccccc2N(C(=O)OCC(Cl)(Cl)Cl)S(=O)(=O)C(F)(F)F)C(=O)OC1 (racemic) [2-34] | 4 (90%-99% herbicidal effect, phytotoxicity) | 4 (90%-99% herbicidal effect, phytotoxicity) | 4 (90%-99% herbicidal effect, phytotoxicity) | 4 (90%-99% herbicidal effect, phytotoxicity) | 4 (90%-99% herbicidal effect, phytotoxicity)
5 | CCOCN(c1ccccc1CN1CCC(CC)(C(F)(F)F)OC1=O)S(=O)(=O)C(F)(F)F (stereo not drawn) [Compound 1-100] | 4 (90%-99% herbicidal effect, phytotoxicity) | 5 (100% herbicidal effect, phytotoxicity) | – | 4 (90%-99% herbicidal effect, phytotoxicity) | 4 (90%-99% herbicidal effect, phytotoxicity)
6 | CCOC(=O)N(c1ccccc1CN1CCC(c2ccccc2)OC1=O)S(=O)(=O)C(F)(F)F (stereo not drawn) [Compound 1-241] | – | 5 (100% herbicidal effect, phytotoxicity) | 4 (90%-99% herbicidal effect, phytotoxicity) | 5 (100% herbicidal effect, phytotoxicity) | 4 (90%-99% herbicidal effect, phytotoxicity)
7 | CCOCN(c1ccccc1CN1CCC(c2ccccc2C)OC1=O)S(=O)(=O)C(F)(F)F (stereo not drawn) [Compound 1-292] | – | 5 (100% herbicidal effect, phytotoxicity) | 4 (90%-99% herbicidal effect, phytotoxicity) | 5 (100% herbicidal effect, phytotoxicity) | 4 (90%-99% herbicidal effect, phytotoxicity)
8 | CCOCN(c1ccccc1CN1CCC(c2ccccc2C(F)(F)F)OC1=O)S(=O)(=O)C(F)(F)F (stereo not drawn) [Compound 1-303] | – | 5 (100% herbicidal effect, phytotoxicity) | 4 (90%-99% herbicidal effect, phytotoxicity) | 5 (100% herbicidal effect, phytotoxicity) | 4 (90%-99% herbicidal effect, phytotoxicity)

Reference: patent publication US8048825B2, “Haloalkylsulfonanilide derivatives or salt thereof, herbicide comprising the derivatives as active ingredient, and use of the herbicide” (Nihon Nohyaku Co., Ltd., priority 2006, dated 2011)
